Here are results for 1 molecule from patent US7544476B1, “Identifying cancers sensitive to treatment with inhibitors of notch signaling” (AVEO Pharmaceuticals, Inc., priority 2008, dated 2009).

Each structure is given as a SMILES string.

The test system of assay [1] is HT-29 colon cancer cell line. The assay can be described thus: Notch target gene expression by qRT-PCR after treatment with gamma-secretase inhibitor. The assay is classed as cell-based, human. As to the method:
(§1) Cells were seeded into 6-well plates in 2 mL of media. Replicates wells of cells treated with 1 μM, 3 μM, and 6 μM Gamma Secretase Inhibitor (GSI; Sigma L-685,458) or DMSO (Sigma D2650) (vehicle control) immediately after seeding. Cells were incubated at 37° C. 5% CO2 for 20 hours after treatment, then collected, rinsed with PBS (Invitrogen 14040-133), and cell pellets were frozen on dry ice and stored at −80° C. Subsequently, RNA was prepared by hand using the Qiagen RNeasy™ miniprep columns (Qiagen GR8RNA) and qRT-PCR performed to analyze Notch target gene expression according to standard protocol (Qiagen Quantitect SYBR GREEN RT-PCR kit 204245). Quantitative RT-PCR was run on Applied Biosystems 7900HT Sequence Detection System. Results were analyzed using the comparative Ct method. Beta Actin was used as the housekeeping gene and Stratagene Universal Human Reference RNA (Stratagene Cat. No. 740000) was used as an external reference sample to determine the level of expression of the Notch target genes Hes1, Hes5, Hes6, Hes7, Hey1, Hey2, HeyL, and Helt.

Assay [2] concerns LS-1034 colon cancer cell line. Described as above. The assay is classed as cell-based, human. As to the method: as §1
Assay [3] deals with mouse tumors with enhanced expression of Notch1 caused by Mo-MuLV integration near the Notch1 locus. Kind of assay: Cell viability assay on disaggregated retroviral-induced tumors treated with GSI. The class given is cell-based. How it is done:
To perform the analyses on the retroviral-induced tumors, tumor-bearing animals were euthanized, tumors were collected and 0.2 g pieces were disaggregated using 4 mg/ml collagenase in RPMI media for 2 hours at 37° C. Cells were further disaggregated by passage through an 18 G needle 5-10 times. Single cells in suspension were aspirated in the supernatant for further analysis.
(§2) For cell viability assays, single cells were re-seeded at 100,000 cell per well in 12-well plates in RPMI media supplemented with 10% FBS, 1% PenStrep, and 0.01 μM Beta estradiol. Cells were then treated for 48 hours with 1, 3 or 10 μM GSI (Sigma L-685,458) or vehicle control. Cell viability and apoptosis were assessed using Guava PCA-96 Viacount Flex reagent (Cat. No. 4700-0060) and measured using a Guava PCA-96 instrument, according to manufacturer's protocol. To measure mRNA expression levels, fresh tumor samples were collected, RNA was prepared using standard protocols, and microarray gene expression profile analysis was performed using Agilent cDNA microarray chips according to manufacturer's recommended protocols. Relative expression of HeyL and other genes was calculated by comparison to a universal mouse reference RNA sample from Stratagene (Universal Mouse Reference RNA Cat. No. 740100). […]

In assay [4] the test system is mouse tumors that did not exhibit elevated Notch1 expression. The description is as above. The class given is cell-based. As to conditions: mouse tumors without elevated Notch1 expression. How it is done:
as §2, with “To perform the analyses on the retroviral-induced tumors, tumor-bearing animals were euthanized, tumors were collected and 0.2 g pieces were disaggregated using 4 mg/ml collagenase in RPMI media for 2 hours at 37° C. Cells were further disaggregated by passage through an 18 G needle 5-10 times. Single cells in suspension were aspirated in the supernatant for further analysis. For” for “For”

As to `CC(C)C[C@H](NC(=O)[C@H](Cc1ccccc1)C[C@@H](O)[C@H](Cc1ccccc1)NC(=O)OC(C)(C)C)C(=O)N[C@@H](Cc1ccccc1)C(N)=O` [GSI], the “expression of Notch target genes” value in assay [1] and in assay [2] was “decreases expression of Notch target genes” in each case. Also, the “sensitivity of tumor growth to inhibition by GSI” value in assay [3] is on record as “sensitivity to inhibition”; in assay [4], “not sensitive”.
